The values that follow come from article PMC8342458, “GluN2A and GluN2B NMDA receptors use distinct allosteric routes” (Nature Communications, 2021).

The target of experiment [1] is T1, wild-type (wt) GluN1/GluN2B receptors (UniProt P35439+Q01097).
T1 construct: For full-length multimeric membrane-embedded receptors studied in cellulo, as done in the present work; expressed in transfected cells; host or cells: Xenopus laevis oocytes (nuclear cDNA injection, pcDNA3 plasmids)
Put plainly: TEVC recordings in Xenopus oocytes, allosteric modulator sensitivity. The experiment is classed as cell-based, rat (GluN1), mouse (GluN2B). The method, then:
(§1) The pcDNA3-based expression plasmids for rat GluN1-1a (named GluN1 herein), rat GluN2A, and mouse GluN2B (also known as ε2) subunits, Pfu-based site-directed mutagenesis strategy, and sequencing procedure have been described previously[68],[69]. Incorporation of the unnatural amino acids (UAAs) AzF and BzF into NMDARs was performed using the genetic code expansion methodology as previously described[52],[53],[83]. The plasmid pSVB.Yam carrying the gene encoding the amber suppressor tRNA derived from B. stearothermophilus Tyr-tRNACUA, while the aminoacyl-tRNA synthetases (aaRS) construction for AzF and BzF derived from E. coli TyrRS[84],[85].
(§2) Recombinant NMDARs were expressed in Xenopus laevis oocytes after nuclear injection of 36 nl of a mixture of cDNAs (at 10–30 ng/μl) encoding various GluN1 and GluN2 subunits (ratio 1:1). Oocytes were prepared, injected, incubated, and voltage-clamped as described previously. For UAA incorporation, oocytes were co-injected with 36 nl of a cDNA mixture encoding for of GluN1, GluN2, Yam, and aaRS as follows, unless otherwise indicated in the text: GluN1-K178amber (120 ng/μl), GluN2A (80 ng/µl) or GluN2B (120 ng/μl), Yam (10 ng/μl), AzF-RS (5 ng/μl). After injection, oocytes were incubated at 19 °C in a Barth solution containing (in mM) 88 NaCl, 1 KCl, 0.33 Ca(NO3)2, 0.41 CaCl2, 0.82 MgSO4, 2.4 NaHCO3, 10 HEPES (pH adjusted to 7.6 with NaOH) supplemented with gentamicin ([…]) and the NMDAR glutamate binding site competitive antagonist D-APV (50 μM). AzF and BzF were added to the incubation medium at final concentrations of 1 mM and 2 mM, respectively.
(§3) For all experiments, except those on pH and spermine sensitivity, the standard external solution contained (in mM): 100 NaCl, 0.3 BaCl2, and 5 HEPES (pH adjusted to 7.3 with KOH). […] For the pH and spermine sensitivity experiments, an external solution enriched in HEPES was used to insure proper pH buffering. Unless otherwise mentioned, NMDAR-mediated currents were induced by simultaneously applications of saturating concentrations of glutamate and glycine (100 μM each). Glutamate and glycine dose-response curves (DRC) were performed in the presence of 100 µM glycine and 100 µM glutamate, respectively. Recordings were performed at a holding potential of −60 mV and at room temperature. Data were collected and analyzed using Clampex 10.5 and Clampfit 10.5 (Molecular Devices), respectively, and fitted using KaleidaGraph 4.0 (Synergy software).
(§4) EC50 and nH were fitted as free parameters. […] For proton DRC, corrections for small shifts in the reference potential of bath electrodes and analysis of the data were performed as previously described. Spermine experiments were performed and analyzed as previously described. In brief, spermine sensitivity was assessed at pH 6.5 and at a holding potential of −30 mV to maximize the spermine induced potentiation. […] EC50, a and nH were set as free parameters. MK-801 is an NMDAR open channel blocker with slow reversibility and, consequently, the rate at which MK-801 inhibits NMDAR responses depends on the level of channel activity, that is, channel open probability (Po). Based on this principle, MK-801 is classically used to estimate the level of NMDAR channel activity in macroscopic whole-cell recordings[36],[47],[56],[86],[87]. Note, however, that MK- 801 inhibition kinetics can index relative, not absolute, Po. MK-801 solutions (10 nM for GluN2A-containing receptors and 50 nM for GluN2B-containing receptors) were prepared by dilution of a stock solution (50 mM) into the agonist containing solutions. MK-801 time constants of inhibition (τon) were obtained by fitting currents with a single-exponential component to a time window corresponding to 10–90% of maximum inhibition. On-rate (kon) constants were then calculated assuming a pseudo first-order reaction scheme: kon = 1 / ([MK-801]*τon).

Experiment [2] has as its target T2, GluN1-K178AzF/GluN2B receptors (UniProt P35439+Q01097, K178F).
T2 construct: For full-length multimeric membrane-embedded receptors studied in cellulo, as done in the present work; expressed in transfected cells; host or cells: Xenopus laevis oocytes, co-injected with amber suppressor tRNA (Yam) and AzF-RS
The experiment can be described thus: TEVC recordings in Xenopus oocytes, modulator sensitivity before and after UV photocrosslinking. The experiment is classed as cell-based, rat (GluN1), mouse (GluN2B). As to conditions: for Isper/Io 20 μM: 20 μM spermine; for Isper/Io 20 μM / Isper/Io 200 μM / Isper/Io 1000 μM / spermine maximal potentiation / spermine nH / EC50: pH 6.5, -30 mV; for Isper/Io 200 μM: 200 μM spermine; for Isper/Io 1000 μM: 1000 μM spermine; for EC50: read-out: spermine EC50. The procedure:
as §1, §2, §3, §4

The target of experiment [3] is T3, GluN1-N512C-L777C/GluN2B-E517C-L781C receptors (UniProt P35439+Q01097, E517C/L777C/L781C/N521C).
T3 construct: For full-length multimeric membrane-embedded receptors studied in cellulo, as done in the present work; expressed in transfected cells; host or cells: Xenopus laevis oocytes
The experiment can be described thus: TEVC recordings in Xenopus oocytes, zinc and ifenprodil inhibition dose-response. The class given is cell-based, rat (GluN1), mouse (GluN2B). The procedure: as §1, §2, §3, §4

For experiment [4], the target named is T4, GluN1/GluN2B-N218C receptors (UniProt P35439+Q01097, N218C).
T4 construct: For full-length multimeric membrane-embedded receptors studied in cellulo, as done in the present work; expressed in transfected cells; host or cells: Xenopus laevis oocytes
The experiment is described as above. The class given is cell-based, rat (GluN1), mouse (GluN2B). The method, then:
as §1, §2, §3, §4

For experiment [5], the target named is T5, GluN1-K178AzF/GluN2A receptors (Rattus norvegicus, UniProt P35439+Q00959, K178F).
T5 construct: For full-length multimeric membrane-embedded receptors studied in cellulo, as done in the present work; expressed in transfected cells; host or cells: Xenopus laevis oocytes, co-injected with amber suppressor tRNA (Yam) and AzF-RS
Put plainly: TEVC recordings in Xenopus oocytes, modulator sensitivity before and after UV photocrosslinking. The class given is cell-based. The procedure:
as §1, §2, §3, §4

[6] abbreviates: pH 8.3 (second column so headed), +UV.
Setting [7] is: pH 6.5, holding potential -30 mV.

The structures appear in SMILES notation. “And” between values parts separate entries of the source, which are not always exact repeats. Equal entries are not always repeated. Where two headings read alike, the source gives them in different places.

T5 sequence (Q00959 23-1464, other chains not shown): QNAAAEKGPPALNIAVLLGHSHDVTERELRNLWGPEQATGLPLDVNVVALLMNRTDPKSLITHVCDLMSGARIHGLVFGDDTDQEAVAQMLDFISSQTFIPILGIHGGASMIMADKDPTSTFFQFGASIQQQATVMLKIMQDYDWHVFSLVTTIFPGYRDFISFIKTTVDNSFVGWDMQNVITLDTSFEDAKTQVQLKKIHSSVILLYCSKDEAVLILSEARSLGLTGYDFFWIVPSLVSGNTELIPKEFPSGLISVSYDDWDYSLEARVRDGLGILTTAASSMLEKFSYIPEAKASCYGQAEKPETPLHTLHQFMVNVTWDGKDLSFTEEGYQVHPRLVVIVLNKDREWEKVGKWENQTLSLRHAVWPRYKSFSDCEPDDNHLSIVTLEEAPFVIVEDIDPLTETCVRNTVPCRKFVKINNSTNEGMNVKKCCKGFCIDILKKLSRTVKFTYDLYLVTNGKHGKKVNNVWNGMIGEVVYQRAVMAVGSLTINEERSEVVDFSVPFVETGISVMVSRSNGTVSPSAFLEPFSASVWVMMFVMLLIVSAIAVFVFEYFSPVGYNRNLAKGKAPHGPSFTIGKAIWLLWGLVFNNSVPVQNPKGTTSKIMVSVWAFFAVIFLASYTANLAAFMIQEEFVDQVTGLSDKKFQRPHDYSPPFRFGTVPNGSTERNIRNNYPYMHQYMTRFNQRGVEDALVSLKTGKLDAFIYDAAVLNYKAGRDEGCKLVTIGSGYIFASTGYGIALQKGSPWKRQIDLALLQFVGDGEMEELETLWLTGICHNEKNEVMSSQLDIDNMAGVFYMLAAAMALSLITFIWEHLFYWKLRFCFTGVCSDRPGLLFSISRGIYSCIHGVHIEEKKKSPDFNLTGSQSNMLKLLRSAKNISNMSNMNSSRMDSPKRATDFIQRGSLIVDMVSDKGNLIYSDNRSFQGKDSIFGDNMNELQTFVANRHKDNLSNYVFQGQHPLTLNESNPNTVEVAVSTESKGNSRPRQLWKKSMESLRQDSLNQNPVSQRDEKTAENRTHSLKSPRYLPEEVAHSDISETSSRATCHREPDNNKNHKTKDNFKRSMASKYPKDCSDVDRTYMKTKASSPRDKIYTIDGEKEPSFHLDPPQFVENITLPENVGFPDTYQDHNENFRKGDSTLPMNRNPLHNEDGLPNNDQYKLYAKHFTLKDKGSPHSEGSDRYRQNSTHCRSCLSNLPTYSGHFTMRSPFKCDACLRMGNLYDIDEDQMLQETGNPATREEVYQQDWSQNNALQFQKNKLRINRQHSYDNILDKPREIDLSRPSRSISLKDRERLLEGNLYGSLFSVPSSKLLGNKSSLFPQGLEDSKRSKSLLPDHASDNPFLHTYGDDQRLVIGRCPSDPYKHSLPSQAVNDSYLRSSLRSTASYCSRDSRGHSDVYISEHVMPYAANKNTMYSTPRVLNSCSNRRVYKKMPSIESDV
T1 sequence (Q01097 27-1482, other chains not shown): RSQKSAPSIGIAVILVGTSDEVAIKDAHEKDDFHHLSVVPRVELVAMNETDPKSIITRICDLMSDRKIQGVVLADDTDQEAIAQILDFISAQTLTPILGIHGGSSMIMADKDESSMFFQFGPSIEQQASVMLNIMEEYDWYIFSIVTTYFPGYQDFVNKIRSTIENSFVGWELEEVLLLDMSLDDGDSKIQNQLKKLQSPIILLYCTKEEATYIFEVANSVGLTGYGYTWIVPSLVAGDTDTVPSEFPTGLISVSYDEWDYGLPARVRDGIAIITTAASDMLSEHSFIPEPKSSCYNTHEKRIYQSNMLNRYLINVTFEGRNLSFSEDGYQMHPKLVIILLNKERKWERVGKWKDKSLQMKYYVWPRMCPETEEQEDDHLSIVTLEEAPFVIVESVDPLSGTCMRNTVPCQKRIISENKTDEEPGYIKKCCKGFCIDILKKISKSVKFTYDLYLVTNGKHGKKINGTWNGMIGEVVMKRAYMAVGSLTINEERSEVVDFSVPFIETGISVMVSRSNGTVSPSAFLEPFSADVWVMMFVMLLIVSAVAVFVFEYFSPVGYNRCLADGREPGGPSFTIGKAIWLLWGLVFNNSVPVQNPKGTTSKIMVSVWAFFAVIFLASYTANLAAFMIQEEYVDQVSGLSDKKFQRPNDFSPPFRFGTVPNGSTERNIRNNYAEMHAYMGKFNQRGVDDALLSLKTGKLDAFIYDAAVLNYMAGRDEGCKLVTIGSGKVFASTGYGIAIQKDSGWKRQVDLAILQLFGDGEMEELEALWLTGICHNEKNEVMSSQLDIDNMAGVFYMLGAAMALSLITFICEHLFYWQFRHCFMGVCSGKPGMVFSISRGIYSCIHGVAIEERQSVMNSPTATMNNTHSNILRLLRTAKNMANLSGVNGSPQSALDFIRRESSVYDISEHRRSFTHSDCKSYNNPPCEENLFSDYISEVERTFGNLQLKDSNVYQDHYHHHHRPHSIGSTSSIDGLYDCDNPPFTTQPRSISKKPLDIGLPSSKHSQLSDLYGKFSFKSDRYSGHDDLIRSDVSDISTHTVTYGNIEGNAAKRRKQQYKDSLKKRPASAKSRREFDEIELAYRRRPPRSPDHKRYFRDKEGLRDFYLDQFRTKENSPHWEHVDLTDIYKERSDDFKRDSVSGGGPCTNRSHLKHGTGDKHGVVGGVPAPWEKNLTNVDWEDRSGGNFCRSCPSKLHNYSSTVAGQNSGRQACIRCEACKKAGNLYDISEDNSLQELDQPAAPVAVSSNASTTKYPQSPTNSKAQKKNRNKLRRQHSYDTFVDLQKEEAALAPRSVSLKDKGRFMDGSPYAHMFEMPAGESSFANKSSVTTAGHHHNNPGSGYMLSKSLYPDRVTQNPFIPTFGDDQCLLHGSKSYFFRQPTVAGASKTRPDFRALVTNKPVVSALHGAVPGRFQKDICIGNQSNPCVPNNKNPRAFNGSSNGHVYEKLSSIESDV
T2 sequence (Q01097 27-1482, other chains not shown): as above

In the case of `CC(C(O)c1ccc(O)cc1)N1CCC(Cc2ccccc2)CC1` (centres unmarked) [ifenprodil, Ifenprodil], the “ifenprodil Hill slope (nH)” value is 1.22 ± 0.04 and 1.14 ± 0.11 and 1.11 ± 0.07 in experiment [1]; 1.25 ± 0.11 in experiment [2] (after UV); 1.25 ± 0.39 in experiment [2] (before UV); 0.83 ± 0.13 in experiment [3]; 1.08 ± 0.06 in experiment [4]. The ifenprodil maximal inhibition in experiment [1] was 0.95 ± 0.02 and 0.93 ± 0.01; in experiment [2] (after UV) it was 0.54 ± 0.06; in experiment [2] (before UV), 0.98 ± 0.09; in experiment [3] it was 0.76 ± 0.03; in experiment [4] it was 0.99 ± 0.02.
For `[1H+]` [proton], the “pHIC50 (proton sensitivity)” value in experiment [5] (after UV) is recorded as 7.01 ± 0.01; in experiment [5] (before UV) it was 7.00 ± 0.02; in experiment [2] (after UV), 6.90 ± 0.02; in experiment [2] (before UV), 7.60 ± 0.01. Moreover, the “proton Hill slope (nH)” value in experiment [5] (after UV) is given as 1.93 ± 0.07; in experiment [5] (before UV), 1.91 ± 0.11; in experiment [2] (after UV) it was 0.99 ± 0.03; in experiment [2] (before UV) it was 1.37 ± 0.05. The “proton, relative current at pH 6.3” value came to 0.04 ± 0.01 in experiment [5] (pH 6.3, +UV); 0.04 ± 0.01 in experiment [5] (pH 6.3, -UV); 0.21 ± 0.09 in experiment [2] (pH 6.3, +UV); 0.03 ± 0.02 in experiment [2] (pH 6.3, -UV). Besides, the “proton, relative current at pH 7.3” value is on record as 0.78 ± 0.03 in experiment [5] (pH 7.3, +UV); 0.79 ± 0.03 in experiment [5] (pH 7.3, -UV); 0.71 ± 0.02 in experiment [2] (pH 7.3, +UV); 0.28 ± 0.04 in experiment [2] (pH 7.3, -UV). For the same compound, the “proton, relative current at pH 8.3” value in experiment [5] (setting [6]) worked out at 1.00 ± 0.02; in experiment [5] (pH 8.3, +UV), 0.99 ± 0.02; in experiment [5] (pH 8.3, -UV) it was 0.99 ± 0.02; in experiment [2] (setting [6]), 0.98 ± 0.01; in experiment [2] (pH 8.3 (second column so headed), -UV) it was 1.00 ± 0.03; in experiment [2] (pH 8.3, +UV), 0.97 ± 0.03. In experiment [2] (pH 8.3, -UV), the “proton, relative current at pH 8.3” value is recorded as 0.90 ± 0.04. The “proton, relative current at pH 9.3” value in experiment [5] (pH 9.3, -UV) is listed as 1.01 ± 0.04. In addition, in experiment [2] (post-UV vs pre-UV), the “rightward shift in the pH dose-response curve” value was more than 0.5 pH-unit.
For `NCCCNCCCCNCCCN` [spermine], the “Isper/Io 20 μM” value in experiment [1] (20 μM spermine, pH 6.5, -30 mV) came to 1.74 ± 0.06; in experiment [2] (+UV), 1.24 ± 0.03; in experiment [2] (-UV), 2.11 ± 0.15. Besides, the “Isper/Io 200 μM” value in experiment [1] (200 μM spermine, pH 6.5, -30 mV) was found to be 6.89 ± 0.52; in experiment [2] (+UV) it was 2.12 ± 0.26; in experiment [2] (-UV) it was 13.65 ± 1.01. Also, the “Isper/Io 1000 μM” value in experiment [1] (1000 μM spermine, pH 6.5, -30 mV) was found to be 12.55 ± 0.41; in experiment [2] (+UV), 2.49 ± 0.42; in experiment [2] (-UV), 23.05 ± 1.52. Also, the spermine maximal potentiation in experiment [1] (setting [7]) was 11.2 ± 3.3; in experiment [2] (after UV), 1.6 ± 0.5; in experiment [2] (before UV), 26.1 ± 2.5. The “spermine nH” value in experiment [1] (setting [7]) is on record as 1.26 ± 0.09; in experiment [2] (after UV), 1.14 ± 0.16; in experiment [2] (before UV) it was 1.29 ± 0.22. The 50% effective concentration (EC50) in experiment [1] (pH 6.5, holding potential -30 mV, read-out: spermine EC50) came out at 174 ± 64.5 µM; in experiment [2] (after UV) it was 93 ± 22.8 µM; in experiment [2] (before UV), 215 ± 63.2 µM.

The term EC50 denotes the concentration needed to bring the measured effect to its halfway point.
